Tested on: wild-type cells
Assay: Growth inhibition by 5-fluoroorotic acid (block of de novo pyrimidine synthesis)
Format: cell-based, Salmonella
Conditions: 50 μg/ml; reversed by addition of 20 μg/ml uracil
Source text: It was recognized that reducing the background mutation frequency by eliminating preexisting FU^R mutants could increase the sensitivity of the assay. Since the only mechanism leading to 5-FU resistance in Salmonella involves loss of uracil phosphoribosyltransferase, a uracil salvage enzyme and product of the upp gene, it was theorized that blockage of the de novo pyrimidine synthesis and supplementation with uracil should permit growth of wild-type cells and selection against FU^R upp mutants.
It was also determined that upp mutants cannot grow in the presence of 5-fluorooroticacid and uracil, presumably due to their inability to utilize exogenous uracil. […] Frozen stocks of FU100 were prepared using cultures grown under these conditions (described in Materials and Methods) in order to produce “cleansed” working stocks with reduced background.

`O=C(O)c1[nH]c(=O)[nH]c(=O)c1F` [5-fluorooroticacid, 5-fluoroorotic acid] was tested, and the “effect on growth of wild-type cells” value was “inhibited growth”.

Source: US7923204B2, “Forward mutation assay based on 5-fluorouracil resistance” (priority 2003, dated 2011)
